US11299478B2, “2-cyanopyrimidin-4-yl carbamate or urea derivative or salt thereof, and pharmaceutical composition including same” (HANLIM PHARMACEUTICAL CO., LTD., priority 2018, dated 2022)

Assays:
Assay type in all cases: biochemical
cathepsin K = target: T1, cathepsin K (Homo sapiens, UniProt P43235); experiment: Inhibitory activity assay against cathepsin K (enzyme assay); settings: Z-Phe-Arg-AMC 10 μM, enzyme 1 nM, pH 5.5, 30 minutes
T1 sequence (P43235 115-329): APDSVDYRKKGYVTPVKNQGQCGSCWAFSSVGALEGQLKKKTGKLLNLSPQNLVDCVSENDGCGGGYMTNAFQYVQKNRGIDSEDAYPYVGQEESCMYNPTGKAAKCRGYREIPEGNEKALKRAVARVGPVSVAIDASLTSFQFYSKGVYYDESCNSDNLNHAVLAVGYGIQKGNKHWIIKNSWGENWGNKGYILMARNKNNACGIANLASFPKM
Method in brief: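 IC50 by 4-parameter logistic fit of fluorescence (ex 355 nm, em 460 nm) after 30 min reaction. Compound tested at 10 final concentrations from 10.0 μM down to 0.000508 μM against 1 nM enzyme and 10 μM Z-Phe-Arg-AMC, in MES buffer pH 5.5 with DTT, EDTA, Triton X-100 and 10% DMSO.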

cathepsin S = cathepsin S (Homo sapiens, UniProt P25774); experiment: Inhibitory activity assay against cathepsin S (enzyme assay); settings: Z-Phe-Arg-AMC 70 μM, enzyme 3 nM, pH 6.5, 45 minutes
cathepsin S, sequence (P25774 115-331, species assumed): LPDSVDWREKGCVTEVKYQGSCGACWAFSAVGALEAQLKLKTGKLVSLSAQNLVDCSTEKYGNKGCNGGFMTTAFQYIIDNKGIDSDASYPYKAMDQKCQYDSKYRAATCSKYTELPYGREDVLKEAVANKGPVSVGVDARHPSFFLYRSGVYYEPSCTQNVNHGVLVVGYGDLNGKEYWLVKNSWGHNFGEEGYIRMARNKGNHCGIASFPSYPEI
Method in brief: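 Ten-point compound titration (10.0 to 0.000508 μM final) reacted 45 min with 3 nM cathepsin S and 70 μM Z-Phe-Arg-AMC in MES 50 mM pH 6.5, DTT 2.5 mM, EDTA 1.0 mM, BSA 0.001%, DMSO 10%. AMC release read at 340/460 nm; IC50 from four-parameter logistic fit.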

cathepsin L = cathepsin L (Homo sapiens, UniProt P07711); experiment: Inhibitory activity assay against cathepsin L (enzyme assay); settings: Z-Phe-Arg-AMC 2 μM, enzyme 3 nM, pH 5.5, 30 minutes
cathepsin L, sequence (P07711 114-333, species assumed): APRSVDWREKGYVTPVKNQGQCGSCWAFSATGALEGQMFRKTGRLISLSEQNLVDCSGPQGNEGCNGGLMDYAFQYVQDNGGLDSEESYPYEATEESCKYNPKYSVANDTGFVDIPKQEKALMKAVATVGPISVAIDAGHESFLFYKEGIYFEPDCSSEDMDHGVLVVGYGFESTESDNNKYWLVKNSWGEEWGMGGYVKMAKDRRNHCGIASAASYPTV
Method in brief: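 IC50s came from 4-parameter logistic fits of ten concentrations (10.0 μM down to 0.000508 μM). Reaction: 30 min, 3 nM enzyme, 2 μM Z-Phe-Arg-AMC, pH 5.5 MES buffer containing DTT, EDTA, Polysorbate 20 and 10% DMSO; fluorescence read 340/460 nm.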

cathepsin B = cathepsin B (Homo sapiens, UniProt P07858); experiment: Inhibitory activity assay against cathepsin B (enzyme assay); settings: Z-Arg-Arg-AMC 40 μM, enzyme 1 nM, pH 6.0, 90 minutes
Method in brief: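 Reaction run 90 min in MES buffer pH 6.0 containing DTT, EDTA, Polysorbate 20 and 10% DMSO, using 40 μM fluorogenic Z-Arg-Arg-AMC and 1 nM cathepsin B. Ten compound levels from 10.0 μM; AMC fluorescence at ex 340/em 460 nm fitted to a 4-parameter logistic for IC50.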

IC50 (cathepsin K) [nM]	IC50 (cathepsin S) [nM]	IC50 (cathepsin L) [nM]	IC50 (cathepsin B) [nM]	Structure (SMILES)
4.3	> 10000	> 10000	> 10000	COC(=O)Cc1ccc(-c2ccc(NC(=O)NC3(c4ccnc(C#N)n4)CCCCC3)cc2)cc1 [Example 156, methyl 2-(4′-(3-(1-(2-cyanopyrimidin-4-yl)cyclohexyl)ureido)-[1,1′-biphenyl]-4-yl)acetate]
61.1	> 10000	> 10000	> 10000	N#Cc1nccc(C2(NC(=O)Nc3ccc(-c4ccc(CC(=O)O)cc4)cc3)CCCCC2)n1 [Example 161, 2-(4′-(3-(1-(2-cyanopyrimidin-4-yl)cyclohexyl)ureido)-[1,1′-biphenyl]-4-yl)acetic acid]
8	1110	> 10000	> 10000	CS(=O)(=O)c1ccc(-c2ccc(NC(=O)NC3(c4ccnc(C#N)n4)CCCCC3)cc2F)cc1 [Example 167, 1-(1-(2-cyanopyrimidin-4-yl)cyclohexyl)-3-(2-fluoro-4′-(methylsulfonyl)-[1,1′-biphenyl]-4-yl)urea]
74	3600	> 10000	> 10000	N#Cc1nccc(C2(NC(=O)Nc3ccc(-c4ccc(S(=O)(=O)C(F)(F)F)cc4)cc3)CCCCC2)n1 [Example 169, 1-(1-(2-cyanopyrimidin-4-yl)cyclohexyl)-3-(4′-((trifluoromethyl)sulfonyl)-[1,1′-biphenyl]-4-yl)urea]
39.5	> 10000	> 10000	> 10000	CS(=O)(=O)c1ccc(-c2ccc(NC(=O)NC3(c4ccnc(C#N)n4)CCCCC3)cc2)cc1F [Example 170, 1-(1-(2-cyanopyrimidin-4-yl)cyclohexyl)-3-(3′-fluoro-4′-(methylsulfonyl)-[1,1′-biphenyl]-4-yl)urea]
13.8	> 10000	> 10000	> 10000	N#Cc1nccc(C2(NC(=O)Nc3ccc(-c4ccc(S(N)(=O)=O)cc4)cc3)CCCCC2)n1 [Example 173, 4′-(3-(1-(2-cyanopyrimidin-4-yl)cyclohexyl)ureido)-[1,1′-biphenyl]-4-sulfonamide]
11.7	> 10000	> 10000	> 10000	CS(=O)(=O)Nc1ccc(-c2ccc(NC(=O)NC3(c4ccnc(C#N)n4)CCCCC3)cc2)cc1 [Example 174, N-(4′-(3-(1-(2-cyanopyrimidin-4-yl)cyclohexyl)ureido)-[1,1′-biphenyl]-4-yl)methanesulfonamide]

Further lines, the molecule ahead of its results:

Structure (SMILES)	IC50 (cathepsin K) [nM]	IC50 (cathepsin S) [nM]	IC50 (cathepsin L) [nM]	IC50 (cathepsin B) [nM]
COCCOCc1ccc(-c2ccc(NC(=O)NC3(c4ccnc(C#N)n4)CCCCC3)cc2)cc1 [Example 157, 1-(1-(2-cyanopyrimidin-4-yl)cyclohexyl)-3-(4′-((2-methoxyethoxy)methyl)-[1,1′-biphenyl]-4-yl)urea]	6.4	4620	> 10000	> 10000
N#Cc1nccc(C2(NC(=O)Nc3ccc(-c4ccc(C(=O)NCC5CCCO5)cc4)cc3)CCCCC2)n1 (centres unmarked) [Example 158, 4′-(3-(1-(2-cyanopyrimidin-4-yl)cyclohexyl)ureido)-N-((tetrahydrofuran-2-yl)methyl)-[1,1′-biphenyl]-4-carboxamide]	6.6	9430	> 10000	5650
CN(C)CCNC(=O)c1ccc(-c2ccc(NC(=O)NC3(c4ccnc(C#N)n4)CCCCC3)cc2)cc1 [Example 159, 4′-(3-(1-(2-cyanopyrimidin-4-yl)cyclohexyl)ureido)-N-(2-(dimethylamino)ethyl)-[1,1′-biphenyl]-4-carboxamide]	0.6	> 10000	4090	1890
CCN1CCN(c2ccc(-c3ccc(NC(=O)NC4(c5ccnc(C#N)n5)CCCCC4)cc3)cc2)CC1 [Example 160, 1-(1-(2-cyanopyrimidin-4-yl)cyclohexyl)-3-(4′-(4-ethylpiperazin-1-yl)-[1,1′-biphenyl]-4-yl)urea]	0.1	> 10000	8810	1840
CS(=O)(=O)c1ccc(-c2ccc(NC(=O)NC3(c4ccnc(C#N)n4)CCCCC3)cc2C(F)(F)F)cc1 [Example 162, 1-(1-(2-cyanopyrimidin-4-yl)cyclohexyl)-3-(4′-(methylsulfonyl)-2-(trifluoromethyl)-[1,1′-biphenyl]-4-yl)urea]	8.3	3950	6520	> 10000
N#Cc1nccc(C2(NC(=O)Nc3ccc(-c4ccc(C(=O)O)cc4)c(C(F)(F)F)c3)CCCCC2)n1 [Example 163, 4′-(3-(1-(2-cyanopyrimidin-4-yl)cyclohexyl)ureido)-2′-(trifluoromethyl)-[1,1′-biphenyl]-4-carboxylic acid]	25.2	3370	> 10000	> 10000
CC(=O)Nc1ccc(-c2ccc(NC(=O)NC3(c4ccnc(C#N)n4)CCCCC3)cc2F)cc1 [Example 164, N-(4′-(3-(1-(2-cyanopyrimidin-4-yl)cyclohexyl)ureido)-2′-fluoro-[1,1′-biphenyl]-4-yl)acetamide]	6.2	4640	> 10000	> 10000
CC(=O)NCc1ccc(-c2ccc(NC(=O)NC3(c4ccnc(C#N)n4)CCCCC3)cc2F)cc1 [Example 165, N-((4′-(3-(1-(2-cyanopyrimidin-4-yl)cyclohexyl)ureido)-2′-fluoro-[1,1′-biphenyl]-4-yl)methyl)acetamide]	5.7	> 10000	> 10000	> 10000
CC(C)N1CCN(c2ccc(-c3ccc(NC(=O)NC4(c5ccnc(C#N)n5)CCCCC4)cc3F)cc2)CC1 [Example 166, 1-(1-(2-cyanopyrimidin-4-yl)cyclohexyl)-3-(2-fluoro-4′-(4-isopropylpiperazin-1-yl)-[1,1′-biphenyl]-4-yl)urea]	0.4	5940	3440	2410
N#Cc1nccc(C2(NC(=O)Nc3ccc(-c4ccc(C5CCN(C6CC6)CC5)cc4)c(F)c3)CCCCC2)n1 [Example 168, 1-(1-(2-cyanopyrimidin-4-yl)cyclohexyl)-3-(4′-(1-cyclopropylpiperidin-4-yl)-2-fluoro-[1,1′-biphenyl]-4-yl)urea]	0.3	> 10000	> 10000	> 10000
CS(=O)(=O)c1ccc(-c2ccc(NC(=O)NC3(c4ccnc(C#N)n4)CCCCC3)cc2)cc1C(F)(F)F [Example 171, 1-(1-(2-cyanopyrimidin-4-yl)cyclohexyl)-3-(4′-(methylsulfonyl)-3′-(trifluoromethyl)-[1,1′-biphenyl]-4-yl)urea]	24	2190	> 10000	> 10000
N#Cc1nccc(C2(NC(=O)Nc3ccc(-c4ccccc4C(F)(F)F)cc3)CCCCC2)n1 [Example 172, 1-(1-(2-cyanopyrimidin-4-yl)cyclohexyl)-3-(2′-(trifluoromethyl)-[1,1′-biphenyl]-4-yl)urea]	108	8020	> 10000	> 10000
N#Cc1nccc(C2(NC(=O)Nc3ccc(-c4ccccc4C(F)(F)F)c(C(F)(F)F)c3)CCCCC2)n1 [Example 176, 1-(2,2′-bis(trifluoromethyl)-[1,1′-biphenyl]-4-yl)-3-(1-(2-cyanopyrimidin-4-yl)cyclohexyl)urea]	122	5840	> 10000	> 10000
